According to article PMC4951196, “The Lamin B receptor is essential for cholesterol synthesis and perturbed by disease-causing mutations” (eLife, 2016):

Target: T1, Lamin B receptor (LBR) (Homo sapiens, UniProt Q14739)
T1 construct: Flag-tagged LBR, WT, expressed in Expi293 cells and purified
T1 sequence (Q14739 1-615): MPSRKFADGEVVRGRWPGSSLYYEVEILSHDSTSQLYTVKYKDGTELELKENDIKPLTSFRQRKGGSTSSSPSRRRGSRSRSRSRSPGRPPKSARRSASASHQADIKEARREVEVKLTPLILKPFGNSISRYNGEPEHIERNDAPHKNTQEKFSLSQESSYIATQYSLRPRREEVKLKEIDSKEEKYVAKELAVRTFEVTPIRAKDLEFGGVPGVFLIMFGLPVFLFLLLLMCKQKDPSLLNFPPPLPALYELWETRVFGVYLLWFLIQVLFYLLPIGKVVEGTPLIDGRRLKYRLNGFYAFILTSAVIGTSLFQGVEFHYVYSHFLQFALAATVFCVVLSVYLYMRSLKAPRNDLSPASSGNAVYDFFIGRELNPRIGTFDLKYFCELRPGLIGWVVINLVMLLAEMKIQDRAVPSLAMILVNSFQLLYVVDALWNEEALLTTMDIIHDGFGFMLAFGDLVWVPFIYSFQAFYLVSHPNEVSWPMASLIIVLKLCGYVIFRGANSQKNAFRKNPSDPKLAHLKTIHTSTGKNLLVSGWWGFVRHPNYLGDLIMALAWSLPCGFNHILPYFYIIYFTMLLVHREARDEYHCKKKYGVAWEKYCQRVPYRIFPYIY
Test: intrinsic tryptophan fluorescence titration of purified LBR
Format: binding

Kd: 24.2 µM
SMILES: NC(=O)C1=CN([C@@H]2O[C@H](COP(=O)(O)OP(=O)(O)OC[C@H]3O[C@@H](n4cnc5c(N)ncnc54)[C@H](OP(=O)(O)O)[C@@H]3O)[C@@H](O)[C@H]2O)C=CC1 [NADPH]
